Data taken from PubChem BioAssay (NCI).
Values joined by “and” are separate entries in the source; they are usually repeats but may differ in a detail not shown here. Equal entries are not always repeated.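 The compound was tested at five concentrations on cells cultured in 96-well plates, with a 48-hour exposure period. Abbreviation: GI50, concentration required for 50% inhibition of growth. TGI marks complete inhibition of growth.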

How the values were obtained:
Experiment in all cases: NCI anticancer screen, dose series, 48 h
[1] = test system: BT-549 breast
[2] = test system: COLO 205 colon
[3] = test system: IGROV1 ovarian
[4] = test system: M14 melanoma
[5] = test system: PC-3 prostate
[6] = test system: SF-268 CNS
[7] = test system: SK-MEL-5 melanoma
[8] = test system: LOX IMVI melanoma

Structure (SMILES)	GI50 [1]	TGI [1]	GI50 [2]	TGI [2]	GI50 [3]	TGI [3]	GI50 [4]	TGI [4]	GI50 [5]	TGI [5]	GI50 [6]	TGI [6]	GI50 [7]	TGI [7]	GI50 [8]	TGI [8]
N=C(N)c1ccc(-c2ccc(-c3ccc(F)cc3)o2)o1	2.27 µM	7.19 µM	1.6 µM	3.15 µM	1.58 µM	3.35 µM	1.23 µM	2.79 µM	1.22 µM	2.57 µM	1.92 µM	4.67 µM	1.56 µM	2.92 µM	–	–
COc1cc(/C=C2\C(=O)Nc3ccccc32)cc(OC)c1OC	28.7 µM	> 100 µM	14.5 µM	47.9 µM	20 µM	> 100 µM	21.2 µM	79.5 µM	18.8 µM	> 100 µM	0.955 µM	> 100 µM	11.1 µM	57.1 µM	16.5 µM	> 100 µM
O=[N+]([O-])/C=C/c1ccc([N+](=O)[O-])cc1	2.1 µM	4.02 µM	1.97 µM	4.22 µM	2.06 µM	5.29 µM	1.55 µM	3.22 µM	5.46 µM	24.8 µM	3.65 µM	12.9 µM	1.76 µM	4.51 µM	1.32 µM	2.73 µM
CCOC(=O)/C(=C\c1ccc(F)cc1)C(C)=O	–	51.4 µM	–	> 100 µM	–	38.9 µM	–	60.9 µM	–	38.2 µM	–	> 100 µM	–	47.1 µM	–	36.7 µM
Cc1ccc2[nH]c(C(=O)NN3C(=O)C(C)SC34CCCCC4C)c(-c3ccccc3)c2c1 (configuration not stated)	18.8 µM	34.5 µM	18 µM	38.9 µM	–	–	20.2 µM	38.8 µM	15.3 µM	37.6 µM	18.8 µM	43.6 µM	16 µM	33.5 µM	18.9 µM	35.4 µM
Cc1ccccc1C(C(=O)NC1CCCCC1)N(C(=O)Cn1ccnc1C)c1cccc(F)c1 (configuration not stated)	> 52.6 µM	> 100 µM	> 92.1 µM	> 100 µM	> 77 µM	> 100 µM	> 100 µM	> 100 µM	> 100 µM	> 100 µM	> 66.5 µM	> 100 µM	> 100 µM	> 100 µM	44 µM	> 100 µM
COc1ccc2[nH]cc(-c3nc(-c4c[nH]c5ccncc45)cs3)c2c1	8.96 µM	21.3 µM	–	–	1.93 µM	3.9 µM	1.83 µM	3.62 µM	2.13 µM	5.23 µM	2.61 µM	6.97 µM	1.65 µM	3.05 µM	–	–
CCC(=O)c1ccc2c(c1)N(CCCN1CCN(CCO)CC1)c1ccccc1S2	14.9 µM	28.9 µM	12.1 µM	26.5 µM	12.4 µM	29.1 µM	2.22 µM	4.63 µM	11.5 µM	25.2 µM	15.4 µM	29.5 µM	8.65 µM	21.1 µM	11.1 µM	26.5 µM
NC(N)=N/N=C/c1c(-c2ccc(Cl)c([N+](=O)[O-])c2)nc2ccccn12	0.119 µM	1.18 µM	–	–	1.36 µM	2.85 µM	–	–	1.37 µM	2.65 µM	1.35 µM	2.93 µM	13.3 µM	41.3 µM	–	–
CC(=O)OC12CC(C)C3(O)C4C=C(C)C(=O)[C@@]4(O)CC(CO)=C[C@H]3C1C2(C)C (some centres not stated)	> 1000 µM	> 1000 µM	0.522 µM and 0.903 µM	–	> 1000 µM	> 1000 µM	> 1000 µM	> 1000 µM	0.228 µM	> 1000 µM	> 1000 µM	> 1000 µM	33.4 µM	> 1000 µM	> 1000 µM	> 1000 µM
Oc1ccc(CN(Cc2ccc(C(F)(F)F)cc2)Cc2ccc(O)c3ncccc23)c2cccnc12	0.0297 µM	> 100 µM	0.091 µM	> 100 µM	0.0584 µM	> 100 µM	0.0326 µM	2.17 µM	< 0.0146 µM	> 100 µM	0.0487 µM	> 100 µM	0.0278 µM	0.16 µM	0.0381 µM	15.1 µM
N/C(=N\c1nc2ccccc2s1)NC(=O)Nc1cccc2ccccc12	2.91 µM	> 100 µM	–	–	0.371 µM	> 100 µM	0.23 µM	> 100 µM	0.318 µM	> 100 µM	2.72 µM	> 100 µM	0.505 µM	> 100 µM	0.825 µM	> 100 µM
CCCCCCCCCCCCCCCCn1cc[n+](Cc2ccccc2)c1C	–	–	–	–	1.09 µM	2.29 µM	0.425 µM	1.91 µM	–	–	0.548 µM	1.77 µM	–	–	–	–
COc1cc(OC)cc(-c2cncn2-c2ccc(-c3nc4cc(OC)cc(OC)c4s3)cc2)c1	3.09 µM	> 100 µM	–	–	5.07 µM	> 100 µM	–	–	–	–	11.3 µM	> 100 µM	3.29 µM	> 100 µM	5.48 µM	> 100 µM
NC1=NC(c2ccc(F)cc2)C2=C(N1)c1ccc3ccccc3c1OCC2 (configuration not stated)	33.6 µM	> 100 µM	–	–	> 100 µM	> 100 µM	> 100 µM	> 100 µM	> 100 µM	> 100 µM	18.2 µM	> 100 µM	5.01 µM	> 100 µM	> 100 µM	> 100 µM
OCc1ccc(Oc2c3ccccc3nc3occc23)cc1	–	–	26.1 µM	54.8 µM	45.6 µM	> 100 µM	23.8 µM	57.6 µM	31.8 µM	> 100 µM	20.6 µM	66.7 µM	–	–	–	–
COc1ccccc1NC(=O)C1=C(C)NC(C)=C(C(=O)Nc2ccccc2OC)C1c1cccc2c1OCO2	–	–	–	> 100 µM	–	> 100 µM	–	> 100 µM	–	–	–	> 100 µM	–	> 100 µM	–	> 100 µM
Cc1ccc(F)cc1NC(=O)c1cc(Cl)ccc1Nc1ccccc1	> 100 µM	> 100 µM	> 100 µM	> 100 µM	> 100 µM	> 100 µM	–	–	> 100 µM	> 100 µM	> 100 µM	> 100 µM	> 100 µM	> 100 µM	> 100 µM	> 100 µM
